Assay results from publication PMC4177392, “Modulation of Cytochrome P450 Metabolism and Transport across Intestinal Epithelial Barrier by Ginger Biophenolics” (PLoS ONE, 2014).
Values after ≈ are worked out from the molar mass of the structure shown.

Tests used:
[1] = target: T1, CYP2A6 (Homo sapiens, UniProt P11509); assay: CYP2A6 inhibition in human liver microsomes (substrate coumarin); assay type: in vitro ADME
T1 sequence (P11509 1-494): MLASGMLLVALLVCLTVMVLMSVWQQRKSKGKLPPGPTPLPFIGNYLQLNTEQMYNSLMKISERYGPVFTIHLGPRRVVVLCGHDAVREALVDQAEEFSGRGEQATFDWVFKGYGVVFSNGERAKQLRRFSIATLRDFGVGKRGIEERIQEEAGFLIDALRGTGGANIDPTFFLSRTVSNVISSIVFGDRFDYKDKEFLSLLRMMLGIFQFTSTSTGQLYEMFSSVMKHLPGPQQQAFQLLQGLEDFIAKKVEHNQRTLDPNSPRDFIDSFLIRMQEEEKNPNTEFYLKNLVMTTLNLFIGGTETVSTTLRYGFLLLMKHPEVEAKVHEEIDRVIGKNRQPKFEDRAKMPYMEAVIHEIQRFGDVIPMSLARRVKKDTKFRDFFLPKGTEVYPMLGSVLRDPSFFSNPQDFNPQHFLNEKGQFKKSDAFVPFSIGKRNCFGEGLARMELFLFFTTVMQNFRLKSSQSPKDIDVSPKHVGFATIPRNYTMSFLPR
Method: (§5) The highest concentration of GE used in the assay was 500 µg/mL equivalent. Stock solution for each CYP specific probe substrate was prepared in such a way that the final concentration is below the reported Km value.
(§6) A microsome-buffer-substrate mixture (MBS mix) was prepared for each isozyme by pre-mixing appropriate volumes of sodium phosphate buffer (pH 7.4, 50 mM), microsomes and substrate (Table S2 in File S1). 179 µL of MBS mix was transferred to 96-well reaction plate to which 1 µL of inhibitor stock solution was added to achieve the final target inhibitor concentration. The reaction plate was pre-incubated for 10 min at 37°C followed by reaction initiation by addition of 20 µL of 10 mM NADPH solution. The reaction plate was then incubated at 37°C for a predetermined time period following which it was quenched with 200 µL ACN for all CYPs and 200 µL 1% formic acid in water∶ACN (70∶30) for CYP1A2. In all cases, the final incubations after addition of substrate and inhibitor contained 0.1% DMSO (v/v), and the total organic solvent (DMSO and ACN) content was less than or equal to 1% (v/v). […] The incubations were performed in singlet for individual gingerols and in duplicate for GE along with respective positive controls.

[2] = target: CYP2E1 (Homo sapiens, UniProt P05181); assay: CYP2E1 inhibition in human liver microsomes (substrate chlorzoxazone); conditions: for IC50 CYP2E1: human liver microsomes, substrate chlorzoxazone, positive control
Method: (§1) Stock solution for each CYP specific probe substrate was prepared in such a way that the final concentration is below the reported Km value.
(§2) A microsome-buffer-substrate mixture (MBS mix) was prepared for each isozyme by pre-mixing appropriate volumes of sodium phosphate buffer (pH 7.4, 50 mM), microsomes and substrate (Table S2 in File S1). 179 µL of MBS mix was transferred to 96-well reaction plate to which 1 µL of inhibitor stock solution was added to achieve the final target inhibitor concentration. The reaction plate was pre-incubated for 10 min at 37°C followed by reaction initiation by addition of 20 µL of 10 mM NADPH solution. The reaction plate was then incubated at 37°C for a predetermined time period following which it was quenched with 200 µL ACN for all CYPs and 200 µL 1% formic acid in water∶ACN (70∶30) for CYP1A2. In all cases, the final incubations after addition of substrate and inhibitor contained 0.1% DMSO (v/v), and the total organic solvent (DMSO and ACN) content was less than or equal to 1% (v/v). The details of final substrate concentration, incubation time, microsomal protein concentration in the reaction mixtures and the metabolites monitored for each isozyme tested are presented in Table S3 in File S1.
(§3) All samples were processed using protein precipitation method and analyzed by employing positive (for all CYPs) and negative (for CYP2A6, 2C19 and 2E1) ionization mode in liquid chromatography tandem mass spectrometry (API4000, Applied Biosystems, USA). The peak area ratio of analyte to IS was used for calculations. An isocratic method comprising 5 mM ammonium formate and ACN (40∶60) with 0.05% formic acid was used for elution. For CYP2C19, a mobile phase consisting of 5 mM ammonium formate and ACN (30∶70) was used. The analytes and internal standards were retained on BDS Hypersil Phenyl (150×4.6 mm, 5 µ, Thermo, USA) column. A flow rate of 0.5 mL/min (CYP1A2), 0.6 mL/min (CYP2C19, CYP2E1), 0.7 mL/min (CYP2C9), 0.8 mL/min (CYP2A6, CYP3A), 1.0 mL/min (CYP2B6, CYP2C8, CYP2D6) was maintained using Shimadzu Prominence solvent delivery system (LC-20AD). The mobile phase was degassed using degasser (DGU-20A3), samples were loaded into autosampler (SIL-HTc) and the column temperature was maintained at 40°C by column oven (CTO-20A). Injection volumes for the samples were as follows: 5 µL (CYP1A2, CYP2D6, and CYP3A), 10 µL (CYP2B6, CYP2C8, and CYP2E1) and 20 µL (CYP2A6, CYP2C9, and CYP2C19). Data was collected and processed using Sciex Analyst 1.4.2. All the structures of inhibitors, substrates, metabolites and internal standards for each CYP enzyme are represented in Table S6 in File S1.
The IC50 value was estimated from the percentage reduction in CYP activity at eleven inhibitor concentrations with respect to control.
(§4) The data was analysed using 4PL (parameter logistic model), 3PLFB (bottom fixed), 3PLFT (top fixed), 2PL (top and bottom fixed), and the relative IC50 was with lowest standard error was further manipulation. Absolute IC50 was calculated from this relative IC50 by using the equation below: [drawing 3]

[3] = target: CYP2C9 (Homo sapiens, UniProt P11712); assay: CYP2C9 inhibition in human liver microsomes (substrate diclofenac)
Method: as §1, §2
as §3, with “All the structures of inhibitors, substrates, metabolites and internal standards for each CYP enzyme are represented in Table S6 in File S1.” left out
as §4

[4] = target: T2, CYP2B6 (Homo sapiens, UniProt P20813); assay: CYP2B6 inhibition in human liver microsomes (substrate bupropion); assay type: in vitro ADME
T2 sequence (P20813 1-491): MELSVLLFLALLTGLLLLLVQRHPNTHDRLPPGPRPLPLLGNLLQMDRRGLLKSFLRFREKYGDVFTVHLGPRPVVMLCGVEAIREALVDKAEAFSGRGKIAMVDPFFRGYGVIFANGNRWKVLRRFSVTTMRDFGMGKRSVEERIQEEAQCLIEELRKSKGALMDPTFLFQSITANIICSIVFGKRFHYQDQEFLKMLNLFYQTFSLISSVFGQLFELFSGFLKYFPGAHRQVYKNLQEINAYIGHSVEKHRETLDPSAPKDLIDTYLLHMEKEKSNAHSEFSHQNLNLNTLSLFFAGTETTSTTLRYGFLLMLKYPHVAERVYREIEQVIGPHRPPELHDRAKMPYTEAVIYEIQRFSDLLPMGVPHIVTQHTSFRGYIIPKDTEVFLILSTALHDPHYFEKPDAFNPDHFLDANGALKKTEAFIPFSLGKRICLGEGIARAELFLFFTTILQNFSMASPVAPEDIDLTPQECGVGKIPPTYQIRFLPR
Method: as §5, §6

[5] = target: T3, CYP2C8 (Homo sapiens, UniProt P10632); assay: CYP2C8 inhibition in human liver microsomes (substrate amodiaquine); assay type: in vitro ADME; conditions: IC50 CYP2C8, human liver microsomes; substrate amodiaquine; gingerols and GE
T3 sequence (P10632 1-490): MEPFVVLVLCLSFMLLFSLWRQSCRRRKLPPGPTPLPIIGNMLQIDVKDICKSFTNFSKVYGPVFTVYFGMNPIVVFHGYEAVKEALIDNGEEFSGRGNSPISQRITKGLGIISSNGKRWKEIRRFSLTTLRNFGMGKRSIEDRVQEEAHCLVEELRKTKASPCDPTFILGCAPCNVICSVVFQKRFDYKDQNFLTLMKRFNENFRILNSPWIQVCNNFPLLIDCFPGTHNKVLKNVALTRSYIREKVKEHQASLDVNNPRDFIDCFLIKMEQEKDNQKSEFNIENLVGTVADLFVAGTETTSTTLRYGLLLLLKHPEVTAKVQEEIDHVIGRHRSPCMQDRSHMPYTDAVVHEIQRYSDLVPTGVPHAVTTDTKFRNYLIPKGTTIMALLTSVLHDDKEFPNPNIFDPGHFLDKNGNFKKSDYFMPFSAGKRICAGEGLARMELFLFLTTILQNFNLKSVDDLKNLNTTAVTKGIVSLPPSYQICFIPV
Method: as §5, §6

[6] = system: Caco-2 monolayer; assay: Caco-2 permeability assay; conditions: 10 µM
Method: (§7) Caco-2 cells were seeded on tissue culture inserts at a density of 80,000 cells/insert. The cells were maintained for 21 days in culture medium to enable differentiation and formation of the monolayer. The culture medium was changed every alternate day.
(§8) Stock solutions (1 mM) of individual gingerols were prepared in DMSO, which were then spiked into the buffer to obtain a final assay concentration of 10 µM. HBSS-HEPES buffer was prepared by dissolving 9.7 g Hank's balanced salts, 0.37 g sodium bicarbonate, 3.50 g glucose and 2.38 g HEPES in Milli-Q water (1 L). The pH of the buffer was adjusted to 7.4 using either 1N hydrochloric acid or 1N sodium hydroxide.
(§9) Permeability of gingerols (10 µM) was determined in apical to basolateral (A-B) and basolateral to apical (B-A) directions. Transport studies were conducted between 21–25 days post seeding in 12-well Transwell inserts. Following pre-incubation in HBSS-HEPES buffer at 37°C, 5% CO2 for 30 min, buffer was removed and gingerols spiked buffer was added to each donor compartment (triplicate wells). Blank HBSS-HEPES buffer containing 1% DMSO was added to the receiver compartment. Samples were withdrawn from the receiver chamber at 30, 60, 90, and 120 min, and from the donor chamber at 0 and 120 min. The samples were collected in tubes containing equal volume of ACN. The withdrawn volume was replaced with buffer containing 1% DMSO. At the end of the experiment, cells were washed with ice-cold buffer and lysed with ACN to assess cell accumulation and estimate the recovery. Monolayers with transepithelial electrical resistance (TEER) above 300 Ωcm^2 were considered for the assay and after the assay TEER values were above 300 Ωcm^2 confirming the monolayer integrity during the experiment.
(§10) Samples were processed using protein precipitation method and analyzed using LC/MS/MS. A calibration curve (CC) of 5 nM to 10,000 nM range was employed to quantify the samples. […] Separation was achieved using Zorbax C18 column (50×4.6 mm, 3.5 µ, Agilent) for 8G, 10G, 6S and using Hypurity C18 column (100×4.6 mm, 5 µ, Thermo) for 6G. An injection volume of 20 µL was used for all samples and a flow rate of 0.6 mL/min (6G) and 1 mL/min (8G, 10G and 6S) was used for elution.
(§11) Cumulative amount of gingerols transported at each time point was plotted as function of time. The slope was used to calculate the rate of appearance of gingerols (dQ/dt).
(§12) Apparent permeability (Papp) was calculated using the formula [drawing 4] dQ/dt – rate of transport to receiver side

[7] = Caco-2 permeability assay; conditions: human; for recovery at 120 min, 10 µM: Caco-2, pH 7.4, Mass Balance (recovery); for Papp at 120 min, 10 µM: Caco-2, pH 7.4, Papp, n = 3, mean ± SD
Method: as §7, §8, §9, §10, §11, §12

[8] = target: CYP2C19 (Homo sapiens, UniProt P33261); assay: CYP2C19 inhibition in human liver microsomes (substrate (S)-mephenytoin); assay type: in vitro ADME
Method: as §5
(§13) A microsome-buffer-substrate mixture (MBS mix) was prepared for each isozyme by pre-mixing appropriate volumes of sodium phosphate buffer (pH 7.4, 50 mM), microsomes and substrate (Table S2 in File S1). 179 µL of MBS mix was transferred to 96-well reaction plate to which 1 µL of inhibitor stock solution was added to achieve the final target inhibitor concentration. The reaction plate was pre-incubated for 10 min at 37°C followed by reaction initiation by addition of 20 µL of 10 mM NADPH solution. The reaction plate was then incubated at 37°C for a predetermined time period following which it was quenched with 200 µL ACN for all CYPs and 200 µL 1% formic acid in water∶ACN (70∶30) for CYP1A2. In all cases, the final incubations after addition of substrate and inhibitor contained 0.1% DMSO (v/v), and the total organic solvent (DMSO and ACN) content was less than or equal to 1% (v/v). The details of final substrate concentration, incubation time, microsomal protein concentration in the reaction mixtures and the metabolites monitored for each isozyme tested are presented in Table S3 in File S1. The incubations were performed in singlet for individual gingerols and in duplicate for GE along with respective positive controls.
(§14) All samples were processed using protein precipitation method and analyzed by employing positive (for all CYPs) and negative (for CYP2A6, 2C19 and 2E1) ionization mode in liquid chromatography tandem mass spectrometry (API4000, Applied Biosystems, USA). The peak area ratio of analyte to IS was used for calculations. An isocratic method comprising 5 mM ammonium formate and ACN (40∶60) with 0.05% formic acid was used for elution. For CYP2C19, a mobile phase consisting of 5 mM ammonium formate and ACN (30∶70) was used. The analytes and internal standards were retained on BDS Hypersil Phenyl (150×4.6 mm, 5 µ, Thermo, USA) column. A flow rate of 0.5 mL/min (CYP1A2), 0.6 mL/min (CYP2C19, CYP2E1), 0.7 mL/min (CYP2C9), 0.8 mL/min (CYP2A6, CYP3A), 1.0 mL/min (CYP2B6, CYP2C8, CYP2D6) was maintained using Shimadzu Prominence solvent delivery system (LC-20AD). The mobile phase was degassed using degasser (DGU-20A3), samples were loaded into autosampler (SIL-HTc) and the column temperature was maintained at 40°C by column oven (CTO-20A). […]

[9] = human, in vivo, po; cited from earlier work
[10] = target: T4, CYP3A4 (Homo sapiens, UniProt P08684); assay: CYP3A4 inhibition in human liver microsomes (substrate midazolam); assay type: in vitro ADME
Method: as §5, §13, §14

[11] = target: T5, CYP1A2 (Homo sapiens, UniProt P05177); assay: CYP1A2 inhibition in human liver microsomes (substrate phenacetin); assay type: in vitro ADME
T5 construct: […]; tissue XenoTechLLC H0610
T5 sequence (P05177 1-516): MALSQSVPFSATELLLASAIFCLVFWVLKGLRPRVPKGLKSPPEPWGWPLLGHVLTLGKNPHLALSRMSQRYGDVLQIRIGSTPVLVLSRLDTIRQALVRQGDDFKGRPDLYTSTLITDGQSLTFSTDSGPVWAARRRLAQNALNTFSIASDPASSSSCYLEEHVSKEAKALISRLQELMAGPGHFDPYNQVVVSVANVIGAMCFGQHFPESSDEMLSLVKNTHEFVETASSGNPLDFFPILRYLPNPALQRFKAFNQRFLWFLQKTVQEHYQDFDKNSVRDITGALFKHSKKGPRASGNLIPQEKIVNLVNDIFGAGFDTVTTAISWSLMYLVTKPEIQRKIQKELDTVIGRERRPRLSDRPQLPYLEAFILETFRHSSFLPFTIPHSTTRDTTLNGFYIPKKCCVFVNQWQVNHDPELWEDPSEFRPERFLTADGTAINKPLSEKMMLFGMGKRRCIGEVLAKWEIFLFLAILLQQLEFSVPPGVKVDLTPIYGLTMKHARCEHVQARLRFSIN
Method: as §5, §6

[12] = target: CYP2D6 (Homo sapiens, UniProt P10635); assay: CYP2D6 inhibition in human liver microsomes (substrate dextromethorphan); assay type: in vitro ADME; conditions: IC50 CYP2D6, human liver microsomes; substrate dextromethorphan; gingerols and GE
Method: as §5, §13, §14

[13] = target: T4, CYP3A4; assay: CYP3A4 inhibition in human liver microsomes (substrate testosterone); assay type: in vitro ADME
Method: as §5, §6

CYP2E1, sequence (P05181 whole entry): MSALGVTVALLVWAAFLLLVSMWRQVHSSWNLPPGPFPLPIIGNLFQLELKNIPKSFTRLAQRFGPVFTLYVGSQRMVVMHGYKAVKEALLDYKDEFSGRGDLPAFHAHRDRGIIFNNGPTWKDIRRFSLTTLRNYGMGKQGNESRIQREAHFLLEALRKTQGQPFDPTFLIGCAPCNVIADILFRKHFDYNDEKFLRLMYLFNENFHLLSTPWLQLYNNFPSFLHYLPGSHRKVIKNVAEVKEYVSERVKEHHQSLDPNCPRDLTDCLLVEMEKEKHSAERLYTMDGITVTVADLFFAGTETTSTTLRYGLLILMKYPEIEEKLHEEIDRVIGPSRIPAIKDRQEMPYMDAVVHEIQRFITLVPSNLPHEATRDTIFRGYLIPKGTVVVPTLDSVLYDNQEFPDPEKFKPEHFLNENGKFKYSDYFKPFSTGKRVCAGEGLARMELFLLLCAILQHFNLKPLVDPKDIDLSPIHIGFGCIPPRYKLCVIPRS
T4 sequence (P08684 2-503): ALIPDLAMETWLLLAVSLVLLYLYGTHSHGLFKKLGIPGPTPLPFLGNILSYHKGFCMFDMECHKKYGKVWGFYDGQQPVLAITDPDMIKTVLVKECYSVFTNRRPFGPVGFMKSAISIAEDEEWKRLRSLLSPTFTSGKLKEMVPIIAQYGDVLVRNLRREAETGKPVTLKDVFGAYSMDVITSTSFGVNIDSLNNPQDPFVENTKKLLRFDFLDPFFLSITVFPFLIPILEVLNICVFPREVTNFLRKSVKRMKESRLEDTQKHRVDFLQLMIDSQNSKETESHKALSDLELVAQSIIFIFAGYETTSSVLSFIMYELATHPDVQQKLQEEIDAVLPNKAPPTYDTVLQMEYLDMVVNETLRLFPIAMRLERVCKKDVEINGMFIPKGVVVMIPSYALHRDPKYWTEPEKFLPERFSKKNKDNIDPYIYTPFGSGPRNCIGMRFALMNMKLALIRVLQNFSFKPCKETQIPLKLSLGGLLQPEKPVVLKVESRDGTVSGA
CYP2D6, sequence (P10635 whole entry): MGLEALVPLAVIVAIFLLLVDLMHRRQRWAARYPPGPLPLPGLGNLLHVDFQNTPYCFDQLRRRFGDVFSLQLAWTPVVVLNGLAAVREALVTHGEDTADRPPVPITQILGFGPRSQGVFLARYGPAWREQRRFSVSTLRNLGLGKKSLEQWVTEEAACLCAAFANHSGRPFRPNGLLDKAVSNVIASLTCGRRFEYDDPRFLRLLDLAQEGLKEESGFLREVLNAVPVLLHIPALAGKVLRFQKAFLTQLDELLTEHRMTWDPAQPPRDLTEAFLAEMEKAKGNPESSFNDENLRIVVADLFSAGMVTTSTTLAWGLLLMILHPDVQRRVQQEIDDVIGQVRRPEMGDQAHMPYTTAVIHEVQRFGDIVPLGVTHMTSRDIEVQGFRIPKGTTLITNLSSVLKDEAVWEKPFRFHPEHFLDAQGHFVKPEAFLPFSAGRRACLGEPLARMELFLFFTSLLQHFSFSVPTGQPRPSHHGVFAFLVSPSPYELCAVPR
CYP2C9, sequence (P11712 whole entry): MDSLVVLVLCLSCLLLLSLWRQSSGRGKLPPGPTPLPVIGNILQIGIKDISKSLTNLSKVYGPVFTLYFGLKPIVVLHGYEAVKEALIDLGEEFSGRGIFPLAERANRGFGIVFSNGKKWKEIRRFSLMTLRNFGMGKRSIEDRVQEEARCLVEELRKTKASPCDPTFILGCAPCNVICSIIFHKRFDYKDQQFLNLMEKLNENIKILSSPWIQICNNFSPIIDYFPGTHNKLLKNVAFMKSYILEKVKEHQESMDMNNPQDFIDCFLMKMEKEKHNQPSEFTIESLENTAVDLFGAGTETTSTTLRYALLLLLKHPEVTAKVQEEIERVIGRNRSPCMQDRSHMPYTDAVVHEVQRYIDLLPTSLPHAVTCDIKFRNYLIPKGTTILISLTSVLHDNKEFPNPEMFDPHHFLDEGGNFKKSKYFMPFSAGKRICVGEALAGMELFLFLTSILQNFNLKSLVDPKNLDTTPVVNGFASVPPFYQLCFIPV
CYP2C19, sequence (P33261 whole entry): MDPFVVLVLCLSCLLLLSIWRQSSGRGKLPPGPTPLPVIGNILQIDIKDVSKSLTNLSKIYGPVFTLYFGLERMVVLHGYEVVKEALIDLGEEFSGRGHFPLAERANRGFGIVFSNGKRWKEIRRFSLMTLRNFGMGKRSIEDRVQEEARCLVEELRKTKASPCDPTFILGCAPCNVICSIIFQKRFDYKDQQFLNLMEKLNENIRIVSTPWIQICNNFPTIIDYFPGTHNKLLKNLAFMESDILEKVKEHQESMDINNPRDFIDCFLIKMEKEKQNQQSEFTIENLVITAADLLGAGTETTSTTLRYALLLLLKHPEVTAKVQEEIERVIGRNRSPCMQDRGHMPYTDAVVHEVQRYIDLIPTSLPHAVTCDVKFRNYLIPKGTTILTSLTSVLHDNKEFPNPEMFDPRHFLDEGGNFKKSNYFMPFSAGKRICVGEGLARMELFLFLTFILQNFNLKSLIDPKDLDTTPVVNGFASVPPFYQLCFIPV

N[C@@H]1C[C@H]1c1ccccc1 (racemic) [Tranylcypromine, reference compound]
IC50 CYP2A6 ([1]; human liver microsomes, substrate coumarin, positive control): 0.0084 µg/mL (≈ 0.0631 µM)
CYP2A6 inhibition, fold more effective than the test compounds ([1]; positive control vs test compounds): ~4000 fold
IC50 CYP2E1 [2]: 0.5793 µg/mL (≈ 4.35 µM)
IC50 CYP2E1 ([2]; listed as tranylcypromine): 0.579 µg/mL (≈ 4.35 µM)

CCCCC[C@H](O)CC(=O)CCc1ccc(O)c(OC)c1 [6G, 6-gingerol]
IC50 [3]: 27.9 µM
IC50 [4]: 51 µM
IC50 [5]: 22.1 µM
Intracellular (cell) accumulation ([6]; direction not given): < 5%
Intracellular accumulation ([6]; A→B): 2%
Intracellular accumulation ([6]; B→A): 5%
efflux ratio at 120 min, 10 µM ([7]; Caco-2, pH 7.4, Efflux Ratio): < 2
recovery at 120 min, 10 µM ([7]; A→B): < 50%
recovery at 120 min, 10 µM ([7]; B→A): 77%
Papp at 120 min, 10 µM ([7]; A→B): > 10 ×10⁻⁶ cm/s
Papp at 120 min, 10 µM ([7]; B→A): > 10 ×10⁻⁶ cm/s
IC50 [8]: 10.9 µM
Cmax / circulating concentration in humans [9]: 850 ± 430 ng/mL
IC50 [10]: > 98.5 µM
IC50 [1]: > 98.5 µM
IC50 [11]: 19 µM
IC50 [12]: > 98.5 µM
IC50 [2]: > 98.5 µM
IC50 [13]: 37.4 µM
